Laboratory results published in patent US5843968A, “Symmetrical bis-heteroarylmethoxy-phenylalkyl carboxylates as inhibitors of leukotriene biosynthesis” (Abbott Laboratories, priority 1997, dated 1998).
Counter-ions that a name gives are not always drawn. Like-named read-outs stand apart in the source and are kept apart here.

Legend:
5-Lipoxygenase = assay: Inhibition of calcium ionophore-induced LTB4 formation in human polymorphonuclear leukocytes (PMNL), in vitro; type: cell-based; conditions: 15 min preincubation, calcium ionophore stimulation 10 min at 37° C., LTB4 by enzyme-linked immunoassay or HPLC, read-out: IC50, In Vitro Inhibitory Potencies Against 5-Lipoxygenase From Stimulated LTB4 Formation in Human Polymorphonuclear Leukocytes
Description: Inhibition of leukotriene biosynthesis was evaluated in vitro using an assay involving calcium ionophore-induced LTB4 expressed in human polymorphornuclear leukocytes (PMNL). Human PMNL isolated from heparinized (20 USP units/mL) venous blood (25 mL) obtained from healthy volunteers was layered over an equal volume of Ficoll-Hypaque Mono-Poly Resolving Medium (ICN Flow, Costa Mesa, Calif.) and centrifugated at 400×g for 40 minutes at 20° C. The PMNL was collected, erythrocytes lysed and washed 2× and suspended at 1.0×10^7 cells/mL in Earle's balanced salt solution with 17 mM Earle's HEPES. Aliquots of the cell suspension were preincubated with test compounds dissolved in DMSO (final concentration <2%) for 15 minutes and stimulated with calcium ionophore (final concentration 8.3, μM) for 10 minutes at 37° C. Incubations were stopped with the addition of two volumes of ice-cold methanol followed by centrifuging the cell suspensions at 4° C. for 10 minutes at ~450×g. The amount of LTB4 in the methanol extract was analyzed by enzyme-linked immunoassay or by HPLC analysis.

leukotriene biosynthesis = assay: Inhibition of leukotriene biosynthesis in vivo, Ionophore-Induced Rat Pleural Inflammation Model; conditions: 0.5 h, male rats, dosed in 0.2% methocel one hour prior to intrapleural A23187, lavage 30 min later, enzyme immunoassay
Description: Inhibition of leukotriene biosynthesis in vivo was evaluated using the Ionophore […]-Induced Rat Plueral Inflammation Model. […] Rats were dosed with experimental compounds in 0.2% methocel one hour prior to the intrapleural injection of the calcium ionophore, A23187. The rats where lightly anesthetized with Pentrane (Abbott Laboratories) and injected intrapleurally with 0.5 ml of 2% ethanol in injectable saline (Abbott Laboratories) containing 20 μg of A23187 (Cal BioChem-Novabiochem). Thirty minutes later the animals were euthanised and the pleural cavities lavaged with ice cold saline (Abbott Laboratories). The lavage fluid was then added to ice cold methanol (final methanol concentration 30%) to lyse cells and precipitate protein. Eicosanoids were determined by enzyme immunoassay by standard methods.

Compound | IC50 (5-Lipoxygenase) [nM] | IC50 (5-Lipoxygenase; sodium salt) [nM] | inhibition in vivo at 3 mg/kg (leukotriene biosynthesis) [%]
CC(CCCON=CC(=O)O)(c1ccc(OCc2ccc3ccccc3n2)cc1)c1ccc(OCc2ccc3ccccc3n2)cc1 [Example 5, [4,4-bis(4-(2-quinolylmethoxy)phenyl)pent-1-yl]iminoxyacetic acid] | 30 |  | 
CC(=NOCCCC(C)(c1ccc(OCc2ccc3ccccc3n2)cc1)c1ccc(OCc2ccc3ccccc3n2)cc1)C(=O)O [Example 6, [4,4-bis(4-(2-quinolylmethoxy)phenyl)pent-1-yl]-2-iminoxypropionic acid] | 35 |  | 
CC(CCC(=O)O)(c1ccc(OCc2ccc3cc(F)ccc3n2)cc1)c1ccc(OCc2ccc3cc(F)ccc3n2)cc1 [Example 11, 4,4-bis(4-(6-fluoro-2-quinolylmethoxy)phenyl)pentanoic acid sodium salt] | 40 |  | 42
CC(C(=O)O)(c1ccc(OCc2ccc3ccccc3n2)cc1)c1ccc(OCc2ccc3ccccc3n2)cc1 [Example 12, 2,2-bis(4-(2-quinolylmethoxy)phenyl)propionic acid] | 32 |  | 
CC(CCC(=O)O)(c1ccc(OCc2ccc3ccccc3n2)c(Cl)c1)c1ccc(OCc2ccc3ccccc3n2)c(Cl)c1 [Example 20, 4,4-bis(3-chloro-4-(2-quinolylmethoxy)phenyl)pentanoic acid] | 26 |  | 
CCC(C(=O)O)(c1ccc(OCc2ccc3ccccc3n2)cc1)c1ccc(OCc2ccc3ccccc3n2)cc1 [Example 24, 2,2-bis(4-(2-quinolylmethoxy)phenyl)butyric acid] |  |  | 38
CC(O)(c1ccc(OCc2ccc3ccccc3n2)cc1)c1ccc(OCc2ccc3ccccc3n2)cc1 [Example 25, 1,1-bis(4-(2-quinolylmethoxy)phenyl)ethanol] | 50 |  | 
CC(C)(C(=O)O)C(c1ccc(OCc2ccc3ccccc3n2)cc1)c1ccc(OCc2ccc3ccccc3n2)cc1 [Example 26, 2,2-dimethyl-3,3-bis(4-(2-quinolylmethoxy)phenyl)propionic acid sodium salt] | 80 |  | 50
CC(C)(C=NOCC(=O)O)C(c1ccc(OCc2ccc3ccccc3n2)cc1)c1ccc(OCc2ccc3ccccc3n2)cc1 [Example 27, sodium salt] | 28 |  | 42
CC(C)(CON=CC(=O)O)C(c1ccc(OCc2ccc3ccccc3n2)cc1)c1ccc(OCc2ccc3ccccc3n2)cc1 [Example 28, 2,2-dimethyl-3,3-bis(4-(2-quinolylmethoxy)phenyl)-1-propyliminoxyacetic acid] | 34 |  | 
O=C(O)C(c1ccc(OCc2ccc3cc(F)ccc3n2)cc1)c1ccc(OCc2ccc3cc(F)ccc3n2)cc1 [Example 30, 2,2-bis(4-(6-fluoro-2-quinolymethoxy)phenyl)acetic acid] | 50 |  | 
O=C(O)CON=CC(c1ccc(OCc2ccc3ccccc3n2)cc1)c1ccc(OCc2ccc3ccccc3n2)cc1 [Example 31, 2,2-bis(4-(2-quinolylmethoxy)phenyl)eth-1-yloximinoacetic acid] | 35 |  | 
O=C(O)CC(c1ccc(OCc2ccc3ccccc3n2)cc1)c1ccc(OCc2ccc3ccccc3n2)cc1 [Example 34, 3,3-bis(4-(2-quinolylmethoxy)phenyl)propionic acid sodium salt] | 70 |  | 30
CC(=NOCCC#CC(O)(c1ccc(OCc2ccc3ccccc3n2)cc1)c1ccc(OCc2ccc3ccccc3n2)cc1)C(=O)O [Example 38, [5,5-bis(4-(2-quinolylmethoxy)phenyl)-5-hydroxy-3-pentyn-1-yl]-2-iminoxypropionic acid sodium salt] | 60 |  | 40

More lines, main results first:

IC50 (5-Lipoxygenase) [nM] | IC50 (5-Lipoxygenase; sodium salt) [nM] | Compound | inhibition in vivo at 3 mg/kg (leukotriene biosynthesis) [%]
40 |  | CC(CCC(=O)O)(c1ccc(OCc2ccc3ccccc3n2)cc1)c1ccc(OCc2ccc3ccccc3n2)cc1 [Example 1, 4,4-bis(4-(2-quinolylmethoxy)phenyl)pentanoic acid] | 
 | 69 | CC(CCC(=O)O)(c1ccc(OCc2ccc3ccccc3n2)cc1)c1ccc(OCc2ccc3ccccc3n2)cc1 [Example 2, 4,4-bis(4-(2-quinolylmethoxy)phenyl)pentanoic acid sodium salt] | 53
40 |  | CC(CCC=NOCC(=O)O)(c1ccc(OCc2ccc3ccccc3n2)cc1)c1ccc(OCc2ccc3ccccc3n2)cc1 [Example 7] | 
46 |  | CC(CCC(=O)O)(c1ccc(OCc2nc3ccccc3s2)cc1)c1ccc(OCc2nc3ccccc3s2)cc1 [Example 8, 4,4-bis(4-(2-benzothiazoylmethoxy)phenyl)pentanoic acid] | 
 | 50 | CC(CCC(=O)O)(c1ccc(OCc2nc3ccccc3s2)cc1)c1ccc(OCc2nc3ccccc3s2)cc1 [Example 9, 4,4bis(4-(2-benzothiazoylmethoxy)phenyl)pentanoic acid sodium salt] | 
43 |  | CC(CCCC(=O)O)(c1ccc(OCc2ccc3ccccc3n2)cc1)c1ccc(OCc2ccc3ccccc3n2)cc1 [Example 14, 5,5-bis(4-(2-quinolylmethoxy)phenyl)hexanoic acid] | 32
25 |  | CC(=NOCCC(C)(c1ccc(OCc2ccc3ccccc3n2)cc1)c1ccc(OCc2ccc3ccccc3n2)cc1)C(=O)O [Example 36, [3,3-bis-(2-quinolylmethoxyphenyl)but-1-yl]-2-iminoxypropionic acid] | 
